In general, MIC refers to the smallest concentration in the dilution series that meets the test's criterion for growth inhibition. Read a high MIC as weaker potency.

Structures are written as SMILES. Values after ≈ are worked out from the molar mass of the structure shown.

This assay deals with Trichomonas vaginalis. Description: Antitrichomonal activity against Trichomonas vaginalis after 48 hrs by invert microscope analysis. Type of assay: functional.
In the case of `CC(C)[C@H](NC(=O)[C@H](CCC(=O)O)NC(=O)[C@H](Cc1ccccc1)NC(=O)[C@@H](C)NC(=O)[C@@H](N)Cc1ccc(O)cc1)C(=O)N[C@H](C(=O)NCC(N)=O)C(C)C` [DELTORPHIN II], the MIC is > 320 µM.

`Oc1ccc2c3c1O[C@H]1c4[nH]c5ccccc5c4C[C@@]4(O)[C@@H](C2)N(CC2CC2)CC[C@]314` [NALTRINDOLE] displayed an MIC of 80 µM (≈ 33.2 µg/mL). The figure for `CN(C)c1ccc(/C=C2\C[C@@]3(O)[C@H]4Cc5ccc(O)c6c5[C@@]3(CCN4CC3CC3)[C@@H](O6)C2=O)cc1` is 20 µM (≈ 9.45 µg/mL); for `C=CCN1C[C@H](C)N([C@H](c2ccc(C(=O)N(CC)CC)cc2)c2cccc(OC)c2)C[C@H]1C` [SNC-80] it is > 320 µM; for `CC1(C)SSC(C)(C)[C@@H](NC(=O)[C@@H](N)Cc2ccc(O)cc2)C(=O)NCC(=O)N[C@@H](Cc2ccccc2)C(=O)N[C@H]1C(=O)O` it is > 320 µM.

In the case of `O=C1/C(=C/c2ccc(F)cc2)C[C@@]2(O)[C@H]3Cc4ccc(O)c5c4[C@@]2(CCN3CC2CC2)[C@H]1O5`, it took 40 µM (≈ 17.9 µg/mL) to inhibit growth (MIC). The figure for `COc1ccc(/C=C2\C[C@@]3(O)[C@H]4Cc5ccc(O)c6c5[C@@]3(CCN4CC3CC3)[C@@H](O6)C2=O)cc1` is 20 µM (≈ 9.19 µg/mL); for `Cc1ncc([N+](=O)[O-])n1CCO` [METRONIDAZOLE] it is 5 µM (≈ 0.856 µg/mL).

Regarding `O=C1/C(=C/c2ccccc2)C[C@@]2(O)[C@H]3Cc4ccc(O)c5c4[C@@]2(CCN3CC2CC2)[C@H]1O5` [BNTX], the MIC came to 40 µM (≈ 17.2 µg/mL).
